This passage reports IC50 results from patent EP4624465A1, “COMPOUND SERVING AS DDR1 KINASE INHIBITOR, AND MEDICINE” (Nippon Shinyaku Co., Ltd., priority 2022, dated 2024).

Assay [1] concerns the target T1, DDR1 kinase (Homo sapiens, UniProt Q08345). Briefly: Evaluation of DDR1 kinase inhibition in DDR1-expressing U2OS cells (type I collagen stimulation, PathHunter detection). Format: cell-based. The arrangement: host or cells: U2OS. The following applies: type I collagen 50 µg/mL stimulation, duplicate, read-out: DDR-1 IC50. The protocol: The solution was further diluted in an E-MEM medium (Fujifilm Wako Pure Chemicals, 051-07615) containing 10% fetal bovine serum (FBS, Gibco, 10270106) to 60000, 6000, 600, 60, 6, and 0.6 nM to prepare test substance solutions. 2. […] On the following day, after the plate was left at room temperature for 1 hour, a detection solution was added to the wells at […] according to the handling instructions for the PathHunter® Detection Kit (DiscoverX, 93-0001), and then incubated at room temperature for 2 hours. After the incubation, a luminescence intensity was measured by Envision (Perkin-Elmer). Tests were performed in duplicate. 3.
Target sequence in this assay (Q08345 19-913): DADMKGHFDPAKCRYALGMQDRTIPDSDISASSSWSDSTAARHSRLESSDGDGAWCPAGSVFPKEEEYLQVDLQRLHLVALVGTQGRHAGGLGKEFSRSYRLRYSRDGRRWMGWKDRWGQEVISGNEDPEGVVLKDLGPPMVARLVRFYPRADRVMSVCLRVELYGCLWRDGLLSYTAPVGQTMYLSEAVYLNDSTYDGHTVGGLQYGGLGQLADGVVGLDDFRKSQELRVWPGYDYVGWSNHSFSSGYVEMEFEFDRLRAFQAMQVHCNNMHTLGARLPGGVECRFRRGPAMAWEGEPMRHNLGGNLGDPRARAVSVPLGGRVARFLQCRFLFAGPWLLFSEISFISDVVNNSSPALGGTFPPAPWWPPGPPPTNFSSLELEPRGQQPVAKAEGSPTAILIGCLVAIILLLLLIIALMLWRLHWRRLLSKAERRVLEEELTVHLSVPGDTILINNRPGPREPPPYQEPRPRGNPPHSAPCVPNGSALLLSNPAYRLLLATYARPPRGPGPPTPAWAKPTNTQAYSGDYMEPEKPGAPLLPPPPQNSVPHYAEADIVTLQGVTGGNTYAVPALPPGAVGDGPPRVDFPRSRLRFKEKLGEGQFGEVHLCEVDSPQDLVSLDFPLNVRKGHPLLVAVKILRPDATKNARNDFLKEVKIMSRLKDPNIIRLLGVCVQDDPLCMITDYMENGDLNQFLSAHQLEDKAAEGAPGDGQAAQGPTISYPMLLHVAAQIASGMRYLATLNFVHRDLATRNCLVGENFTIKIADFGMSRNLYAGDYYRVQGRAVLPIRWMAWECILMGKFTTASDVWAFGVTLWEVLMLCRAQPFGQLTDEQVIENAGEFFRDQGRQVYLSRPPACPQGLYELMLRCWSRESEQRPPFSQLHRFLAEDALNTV

The target in assay [2] is T1, DDR1 kinase. Briefly: Evaluation of DDR1 kinase inhibition (LANCE Ultra TR-FRET kinase assay). It counts as biochemical. More on the design: purchased Carna Biosciences 08-113. The following applies: DDR1 protein 0.5 nM, LANCE Ultra ULight-poly GAT substrate, 2 hours at room temperature, duplicate; read-out: DDR-1 IC50. (In general: In TR-FRET formats the signal depends on donor and acceptor labels being close together.)
Target sequence in this assay (Q08345 19-876 isoform Q08345-2 limits assumed): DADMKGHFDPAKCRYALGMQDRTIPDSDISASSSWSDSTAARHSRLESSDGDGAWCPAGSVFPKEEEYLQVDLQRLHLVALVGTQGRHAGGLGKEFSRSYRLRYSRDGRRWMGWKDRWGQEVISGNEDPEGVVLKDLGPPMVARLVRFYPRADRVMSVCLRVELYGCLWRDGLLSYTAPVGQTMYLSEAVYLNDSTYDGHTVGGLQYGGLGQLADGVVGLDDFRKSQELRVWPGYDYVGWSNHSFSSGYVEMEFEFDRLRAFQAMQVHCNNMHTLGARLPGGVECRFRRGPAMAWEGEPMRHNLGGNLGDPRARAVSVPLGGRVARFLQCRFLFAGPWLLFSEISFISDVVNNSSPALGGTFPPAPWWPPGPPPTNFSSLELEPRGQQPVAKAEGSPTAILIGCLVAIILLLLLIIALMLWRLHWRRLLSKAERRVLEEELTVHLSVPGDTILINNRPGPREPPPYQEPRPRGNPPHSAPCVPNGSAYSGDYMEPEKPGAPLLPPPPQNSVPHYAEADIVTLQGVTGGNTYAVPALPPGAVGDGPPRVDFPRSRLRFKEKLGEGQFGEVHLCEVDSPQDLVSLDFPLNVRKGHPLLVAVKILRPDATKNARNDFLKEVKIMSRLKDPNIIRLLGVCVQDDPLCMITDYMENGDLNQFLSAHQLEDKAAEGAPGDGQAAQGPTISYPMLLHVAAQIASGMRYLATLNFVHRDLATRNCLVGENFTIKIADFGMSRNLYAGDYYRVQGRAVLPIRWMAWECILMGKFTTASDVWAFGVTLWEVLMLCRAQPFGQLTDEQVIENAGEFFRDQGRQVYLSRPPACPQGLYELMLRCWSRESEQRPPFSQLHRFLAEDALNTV

Where “and” joins values, the source holds several entries; their conditions need not be identical. Equal values may be shown once. Where a name gives a salt, the structure may show the parent alone.

Turning to `Nc1cc(C(=O)N2CC(c3nn(Cc4cn(CC5CC5)nn4)c4cccc(F)c34)C2)ccn1` [Compound E-37, 4-[3-(1-{[1-(cyclopropylmethyl)-1H-1,2,3-triazol-4-yl]methyl}-4-fluoro-1H-indazol-3-yl)azetidine-1-carbonyl]pyridin-2-amine hydrochloride], the IC50 at DDR1 kinase [1] is 2600 nM; at DDR1 kinase [2], 50 nM.

As to `Nc1cc(C(=O)N2CC(c3nn(CC(=O)N4CCC[C@H]4C(F)(F)F)c4ccccc34)C2)ccn1` [Compound E-40, 2-{3-[1-(2-aminopyridine-4-carbonyl)azetidin-3-yl]-1H-indazol-1-yl}-1-[(2S)-2-(trifluoromethyl)pyrrolidin-1-yl]ethan-1-one], the values for the IC50 on DDR1 kinase [1] and at DDR1 kinase [2] were 69 nM and 5.7 nM, respectively.

With `Nc1cc(C(=O)N2CC(c3nn(CC(=O)N4CCO[C@@H](C(F)(F)F)C4)c4cc(F)cc(F)c34)C2)c(F)cn1` [Compound E-42, 2-{3-[1-(2-amino-5-fluoropyridine-4-carbonyl)azetidin-3-yl]-4,6-difluoro-1H-indazol-1-yl)-1-[(2R)-2-(trifluoromethyl)morpholin-4-yl]ethan-1-one], the IC50 at DDR1 kinase [1] was found to be 150 nM; on DDR1 kinase [2], 3.2 nM.

Regarding `CN(CC(F)(F)F)C(=O)Cn1nc(C2CN(C(=O)c3ccnc(N)c3)C2)c2ccccc21` [Compound E-45, 2-{3-[1-(2-aminopyridine-4-carbonyl)azetidin-3-yl]-1H-indazol-1-yl}-N-methyl-N-(2,2,2-trifluoroethyl)acetamide], the IC50 at DDR1 kinase [1] stood at 140 nM; at DDR1 kinase [2], 4.4 nM.

Take `Nc1cc(C(=O)N2CC(c3nn(CC(=O)N4CCC[C@@H]4C(F)(F)F)c4cc(F)cc(F)c34)C2)ccn1` [Compound E-50, 2-{3-[1-(2-aminopyridine-4-carbonyl)azetidin-3-yl]-4,6-difluoro-1H-indazol-1-yl]-1-[(2R)-2-(trifluoromethyl)pyrrolidin-1-yl]ethan-1-one]: the concentration for half-maximal inhibition (IC50) was 1900 nM on DDR1 kinase [1] and 28 nM at DDR1 kinase [2].

Regarding `Cc1c(C(=O)N2CC(c3nn(CC(=O)N4CCO[C@@H](C(F)(F)F)C4)c4cc(F)cc(F)c34)C2)ccnc1N` [Compound E-51, 2-{3-[1-(2-amino-3-methylpyridine-4-carbonyl)azetidin-3-yl]-4,6-difluoro-1H-indazol-1-yl}-1-[(2R)-2-(trifluoromethyl)morpholin-4-yl]ethan-1-one hydrochloride], the results for the IC50 at DDR1 kinase [1] and at DDR1 kinase [2] were 400 nM and 12 nM, respectively.

On to `Nc1cc(C(=O)N2CC(c3nn(CC(=O)N4CCC[C@H]4C(F)(F)F)c4cncc(F)c34)C2)ccn1` [Compound E-54, 2-{3-[1-(2-aminopyridine-4-carbonyl)azetidin-3-yl]-4-fluoro-1H-pyrazolo[3,4-c]pyridin-1-yl}-1-[(2S)-2-(trifluoromethyl)pyrrolidin-1-yl]ethan-1-one hydrochloride], for which the values for the IC50 at DDR1 kinase [1] and on DDR1 kinase [2] were 180 nM and 6.2 nM, respectively.

As to `Nc1cc(C(=O)N2CC(c3nn(Cc4nc(-c5cccc(C(F)(F)F)c5)no4)c4cccc(F)c34)C2)ccn1` [Compound E-55, 4-{3-[4-fluoro-1-({3-[3-(trifluoromethyl)phenyl]-1,2,4-oxadiazol-5-yl}methyl)-1H-indazol-3-yl]azetidine-1-carbonyl}pyridin-2-amine], the IC50 at DDR1 kinase [1] was 150 nM; at DDR1 kinase [2] it was 23 nM.

Consider `CN(CC(F)(F)F)C(=O)Cn1nc(C2CN(C(=O)c3cc(N)ncc3F)C2)c2c(F)cccc21` [Compound E-59, 2-{3-[1-(2-amino-5-fluoropyridine-4-carbonyl)azetidin-3-yl]-4-fluoro-1H-indazol-1-yl}-N-methyl-N-(2,2,2-trifluoroethyl)acetamide], for which the IC50 on DDR1 kinase [1] stood at 170 nM; on DDR1 kinase [2], 5.4 nM.

Consider `O=C(Cn1nc(C2CN(C(=O)c3ccnc4[nH]ccc34)C2)c2c(Cl)cccc21)NCC(F)(F)F` [Compound E-61], for which the concentration for half-maximal inhibition (IC50) at DDR1 kinase [1] is 960 nM and 1600 nM; on DDR1 kinase [2], 2.8 nM.

On to `CNc1cc(C(=O)N2CC(c3nn(CC(=O)NCC(F)(F)F)c4cccc(Cl)c34)C2)ccn1` [Compound E-63, 2-(4-chloro-3-{1-[2-(methylamino)pyridine-4-carbonyl]azetidin-3-yl]-1H-indazol-1-yl)-N-(2,2,2-trifluoroethyl)acetamide], for which the results for the IC50 on DDR1 kinase [1] and at DDR1 kinase [2] were 140 nM and 4.3 nM, respectively.

As for `CCNc1cc(C(=O)N2CC(c3nn(CC(=O)NCC(F)(F)F)c4cccc(Cl)c34)C2)ccn1` [Compound E-64, 2-(4-chloro-3-(1-[2-(ethylamino)pyridine-4-carbonyl]azetidin-3-yl}-1H-indazol-1-yl)-N-(2,2,2-trifluoroethyl)acetamide hydrochloride], the IC50 at DDR1 kinase [1] was found to be 180 nM; on DDR1 kinase [2] it was 62 nM.

As for `O=C(Cn1nc(C2CN(C(=O)c3ccnc(NC4CC4)c3)C2)c2c(F)cccc21)NCC(F)(F)F` [Compound E-65, 2-(3-{1-[2-(cyclopropylamino)pyridine-4-carbonyl]azetidin-3-yl}-4-fluoro-1H-indazol-1-yl)-N-(2,2,2-trifluoroethyl)acetamide hydrochloride], the values for the IC50 on DDR1 kinase [1] and on DDR1 kinase [2] were 41 nM and 1.9 nM, respectively.

In the case of `O=C(Cn1nc(C2CN(C(=O)c3ccnc(NC4CCC4)c3)C2)c2c(F)cccc21)NCC(F)(F)F` [Compound E-68, 2-(3-{1-[2-(cyclobutylamino)pyridine-4-carbonyl]azetidin-3-yl}-4-fluoro-1H-indazol-1-yl)-N-(2,2,2-trifluoroethyl)acetamide hydrochloride], the IC50 stood at 8 nM on DDR1 kinase [1] and 3.8 nM on DDR1 kinase [2].

In the case of `Nc1cc(C(=O)N2CC(c3nn(CC(=O)NCC(F)(F)F)c4ccc(F)c(Br)c34)C2)ccn1` [Compound E-70, 2-{3-[1-(2-aminopyridine-4-carbonyl)azetidin-3-yl]-4-bromo-5-fluoro-1H-indazol-1-yl}-N-(2,2,2-trifluoroethyl)acetamide hydrochloride], the IC50 at DDR1 kinase [1] came out at 120 nM; on DDR1 kinase [2] it was 1.7 nM.

As for `O=C(c1ccnc(NC2CC2)c1)N1CC(c2nn(CC(=O)N3CCC[C@H]3C(F)(F)F)c3cc(F)cc(F)c23)C1` [Compound E-72, 2-(3-{1-[2-(cyclopropylamino)pyridine-4-carbonyl]azetidin-3-yl)-4,6-difluoro-1H-indazol-1-yl)-1-[(2S)-2-(trifluoromethyl)pyrrolidin-1 - yllethan-1-one hydrochloride], the IC50 on DDR1 kinase [1] worked out at 200 nM; on DDR1 kinase [2] it was 8.5 nM.

For `Nc1cc(C(=O)N2CC(c3nn(CC(=O)N4CCO[C@@H](C(F)(F)F)C4)c4cc(F)cc(F)c34)C2)ccn1` [Compound E-73, 2-(3-[1-(2-aminopyridine-4-carbonyl)azetidin-3-yl]-4,6-difluoro-1H-indazol-1-yl}-1-l(2R)-2-(trifluoromethyl)morpholin-4-yl]ethan-1-one hydrochloride], the IC50 is 13 nM at DDR1 kinase [1] and 5.6 nM at DDR1 kinase [2].

Regarding `O=C(c1ccnc(NC2CCC(F)(F)CC2)c1)N1CC(c2nn(CC(=O)N3CCC[C@H]3C(F)(F)F)c3cc(F)cc(F)c23)C1` [Compound E-75, 2-[3-(1-{2-[(4,4-difluorocyclohexyl)aminolpyridine-4-carbonyl}azetidin-3-yl)-4,6-difluoro-1H-indazol-1-yl]-1-[(2S)-2-(trifluoromethyl)pyrrolidin-1-yl]ethan-1-one hydrochloride], the IC50 on DDR1 kinase [1] stood at 33 nM; at DDR1 kinase [2], 15 nM.

Regarding `Nc1cc(C(=O)N2CC(c3nn(CC(=O)N4CCCC4)c4cc(F)cc(F)c34)C2)ccn1` [Compound E-76, 2-{3-[1-(2-aminopyridine-4-carbonyl)azetidin-3-yl]-4,6-difluoro-1H-indazol-1-yl}-1-(pyrrolidin-1-yl)ethan-1-one], the IC50 worked out at 1300 nM at DDR1 kinase [1] and 100 nM at DDR1 kinase [2].

For the compound `Cc1c(C(=O)N2CC(c3nn(CC(=O)N4CCC[C@H]4C(F)(F)F)c4cc(F)cc(F)c34)C2)ccnc1N` [Compound E-77, 2-{3-[1-(2-amino-3-methylpyridine-4-carbonyl)azetidin-3-yl]-4,6-difluoro-1H-indazol-1-yl}-1-{(2S)-2-(trifluoromethyl)pyrrolidin-1-yl]ethan-1-one hydrochloride], the values for the IC50 at DDR1 kinase [1] and at DDR1 kinase [2] were 320 nM and 3.5 nM, respectively.

`Cc1cnc(N)cc1C(=O)N1CC(c2nn(CC(=O)N3CCC[C@H]3C(F)(F)F)c3cc(F)cc(F)c23)C1` [Compound E-78, 2-{3-[1-(2-amino-5-methylpyridine-4-carbonyl)azetidin-3-yl]-4,6-difluoro-1H-indazol-1-yl}-1-[(2S)-2-(trifluoromethyl)pyrrolidin-1-yl]ethan-1-one hydrochloride]: the values for the IC50 on DDR1 kinase [1] and on DDR1 kinase [2] were 380 nM and 13 nM, respectively.

On to `C[C@H]1CN(C(=O)Cn2nc(C3CN(C(=O)c4ccnc(N)c4)C3)c3c(F)cc(F)cc32)CCO1` [Compound E-79, 2-{3-[1-(2-aminopyridine-4-carbonyl)azetidin-3-yl]-4,6-difluoro-1H-indazol-1-yl}-1-[(2S)-2-methylmorpholin-4-yl]ethan-1-one hydrochloride], for which the values for the IC50 on DDR1 kinase [1] and at DDR1 kinase [2] were 3400 nM and 35 nM, respectively.

On to `C[C@@H]1COCCN1C(=O)Cn1nc(C2CN(C(=O)c3ccnc(N)c3)C2)c2c(F)cc(F)cc21` [Compound E-80, 2-{3-[1-(2-aminopyridine-4-carbonyl)azetidin-3-yl]-4,6-difluoro-1H-indazol-1-yl}-1-[(3R)-3-methylmorpholin-4-yl]ethan-1-one hydrochloride], for which the IC50 at DDR1 kinase [1] is 4200 nM; on DDR1 kinase [2] it was 36 nM.

Broadly, the IC50 is the concentration at which inhibition is half-maximal.
